Measurements: the NIST ThermoML archive (doi:10.1021/je700260f)
± gives the expanded uncertainty stated by the source.

Conditions: 323.14 K, Liquid, Vibrating tube method

FC(C(F)(F)F)C(F)(F)F [1,1,1,2,3,3,3-heptafluoropropane]
Conditions | mass density [kg/m3]
18469 kPa | 1413.4 ± 1.6
18489 kPa | 1413.6 ± 1.6
18518 kPa | 1413.8 ± 1.6
18639 kPa | 1414.5 ± 1.6
18664 kPa | 1414.6 ± 1.6
18688 kPa | 1414.7 ± 1.6
18713 kPa | 1414.8 ± 1.6
18738 kPa | 1414.8 ± 1.6
18764 kPa | 1415.1 ± 1.6
18787 kPa | 1415.1 ± 1.6
18806 kPa | 1415.3 ± 1.6
18836 kPa | 1415.4 ± 1.6
19030 kPa | 1416.6 ± 1.6
19049 kPa | 1416.5 ± 1.6
19073 kPa | 1416.7 ± 1.6
19091 kPa | 1416.8 ± 1.6
19111 kPa | 1416.8 ± 1.6
19136 kPa | 1416.9 ± 1.6
19224 kPa | 1417.4 ± 1.6
19244 kPa | 1417.5 ± 1.6
19276 kPa | 1417.6 ± 1.6
19303 kPa | 1417.9 ± 1.6
19335 kPa | 1418 ± 1.6
19359 kPa | 1418.1 ± 1.6
19382 kPa | 1418.2 ± 1.6
19410 kPa | 1418.4 ± 1.6
19431 kPa | 1418.5 ± 1.6
19452 kPa | 1418.4 ± 1.6
19473 kPa | 1418.7 ± 1.6
19509 kPa | 1418.8 ± 1.6
19534 kPa | 1419.1 ± 1.6
19563 kPa | 1419.2 ± 1.6
19591 kPa | 1419.1 ± 1.6
19608 kPa | 1419.2 ± 1.6
19637 kPa | 1419.5 ± 1.6
19667 kPa | 1419.6 ± 1.6
19693 kPa | 1419.8 ± 1.6
19721 kPa | 1419.9 ± 1.6
19746 kPa | 1419.9 ± 1.6
19771 kPa | 1420 ± 1.6
19795 kPa | 1420.5 ± 1.6
19830 kPa | 1420.4 ± 1.6
19857 kPa | 1420.6 ± 1.6
19893 kPa | 1420.7 ± 1.6
19917 kPa | 1420.9 ± 1.6
19942 kPa | 1421.1 ± 1.6
19968 kPa | 1421.2 ± 1.6
19996 kPa | 1421.3 ± 1.6
20014 kPa | 1421.4 ± 1.6
20047 kPa | 1421.4 ± 1.6
20075 kPa | 1421.5 ± 1.6
20101 kPa | 1421.8 ± 1.6
20124 kPa | 1421.9 ± 1.6
20452 kPa | 1423.5 ± 1.6
20511 kPa | 1423.8 ± 1.6
20538 kPa | 1423.8 ± 1.6
20571 kPa | 1424.1 ± 1.6
20600 kPa | 1424.3 ± 1.6
20632 kPa | 1424.4 ± 1.6
20657 kPa | 1424.6 ± 1.6
20681 kPa | 1424.6 ± 1.6
20715 kPa | 1424.8 ± 1.6
20735 kPa | 1424.9 ± 1.6
20759 kPa | 1425 ± 1.6
20780 kPa | 1425.1 ± 1.6
20814 kPa | 1425.2 ± 1.6
20837 kPa | 1425.4 ± 1.6
20864 kPa | 1425.5 ± 1.6
20891 kPa | 1425.6 ± 1.6
20919 kPa | 1425.8 ± 1.6
20943 kPa | 1425.8 ± 1.6
20963 kPa | 1426 ± 1.6
20994 kPa | 1426.2 ± 1.6
21021 kPa | 1426.3 ± 1.6
21041 kPa | 1426.4 ± 1.6
21069 kPa | 1426.5 ± 1.6
21100 kPa | 1426.5 ± 1.6
21124 kPa | 1426.7 ± 1.6
21151 kPa | 1426.8 ± 1.6
21174 kPa | 1427 ± 1.6
21195 kPa | 1427.2 ± 1.6
21219 kPa | 1427.1 ± 1.6
21243 kPa | 1427.2 ± 1.6
21271 kPa | 1427.4 ± 1.6
21296 kPa | 1427.5 ± 1.6
21318 kPa | 1427.7 ± 1.6
21353 kPa | 1427.8 ± 1.6
21376 kPa | 1428.1 ± 1.6
21404 kPa | 1428.1 ± 1.6
21424 kPa | 1428.1 ± 1.6
21456 kPa | 1428.3 ± 1.6
21478 kPa | 1428.4 ± 1.6
21511 kPa | 1428.6 ± 1.6
21546 kPa | 1428.8 ± 1.6
21572 kPa | 1428.9 ± 1.6
21597 kPa | 1429 ± 1.6
21630 kPa | 1429.1 ± 1.6
21660 kPa | 1429.3 ± 1.6
21684 kPa | 1429.4 ± 1.6
21712 kPa | 1429.4 ± 1.6
21734 kPa | 1429.6 ± 1.6
22001 kPa | 1430.9 ± 1.6
22031 kPa | 1431 ± 1.6
22058 kPa | 1431.1 ± 1.6
22088 kPa | 1431.3 ± 1.6
22114 kPa | 1431.5 ± 1.6
22137 kPa | 1431.4 ± 1.6
22174 kPa | 1431.7 ± 1.6
22209 kPa | 1431.8 ± 1.6
22233 kPa | 1432 ± 1.6
22272 kPa | 1432.1 ± 1.6
22308 kPa | 1432.2 ± 1.6
22334 kPa | 1432.5 ± 1.6
22366 kPa | 1432.6 ± 1.6
22390 kPa | 1432.7 ± 1.6
22418 kPa | 1432.7 ± 1.6
22439 kPa | 1432.9 ± 1.6
22462 kPa | 1433.1 ± 1.6
22489 kPa | 1433.2 ± 1.6
22513 kPa | 1433.3 ± 1.6
22533 kPa | 1433.3 ± 1.6
22571 kPa | 1433.6 ± 1.6
22602 kPa | 1433.6 ± 1.6
22627 kPa | 1433.8 ± 1.6
22657 kPa | 1434 ± 1.6
22685 kPa | 1434.1 ± 1.6
22721 kPa | 1434.2 ± 1.6
22744 kPa | 1434.3 ± 1.6
22777 kPa | 1434.5 ± 1.6
22801 kPa | 1434.6 ± 1.6
22825 kPa | 1434.6 ± 1.6
22862 kPa | 1434.8 ± 1.6
22889 kPa | 1435 ± 1.6
22927 kPa | 1435.2 ± 1.6
22962 kPa | 1435.2 ± 1.6
23026 kPa | 1435.6 ± 1.6
23049 kPa | 1435.7 ± 1.6
23075 kPa | 1435.7 ± 1.6
23101 kPa | 1436 ± 1.6
23130 kPa | 1436.1 ± 1.6
23163 kPa | 1436.3 ± 1.6
23185 kPa | 1436.3 ± 1.6
23221 kPa | 1436.4 ± 1.6
23254 kPa | 1436.5 ± 1.6
23276 kPa | 1436.7 ± 1.6
23305 kPa | 1436.8 ± 1.6
23328 kPa | 1437 ± 1.6
23354 kPa | 1437.1 ± 1.6
23380 kPa | 1437.2 ± 1.6
23402 kPa | 1437.2 ± 1.6
23428 kPa | 1437.5 ± 1.6
23454 kPa | 1437.5 ± 1.6
23484 kPa | 1437.7 ± 1.6
23510 kPa | 1437.7 ± 1.6
23538 kPa | 1437.9 ± 1.6
23560 kPa | 1438 ± 1.6
23587 kPa | 1438.1 ± 1.6
23609 kPa | 1438.2 ± 1.6
23776 kPa | 1439 ± 1.6
23810 kPa | 1439 ± 1.6
23832 kPa | 1439.2 ± 1.6
23865 kPa | 1439.2 ± 1.6
23891 kPa | 1439.5 ± 1.6
23918 kPa | 1439.6 ± 1.6
23949 kPa | 1439.6 ± 1.6
23975 kPa | 1439.9 ± 1.6
23998 kPa | 1439.9 ± 1.6
24025 kPa | 1440 ± 1.6
24056 kPa | 1440 ± 1.6
24079 kPa | 1440.3 ± 1.6
24109 kPa | 1440.4 ± 1.6
24134 kPa | 1440.5 ± 1.6
24156 kPa | 1440.7 ± 1.6
24187 kPa | 1440.7 ± 1.6
24223 kPa | 1440.9 ± 1.6
24254 kPa | 1441.1 ± 1.6
24277 kPa | 1441.2 ± 1.6
24304 kPa | 1441.1 ± 1.6
24342 kPa | 1441.4 ± 1.6
24400 kPa | 1441.5 ± 1.6
24420 kPa | 1441.7 ± 1.6
24564 kPa | 1442.3 ± 1.6
24596 kPa | 1442.6 ± 1.6
24658 kPa | 1442.8 ± 1.6
24699 kPa | 1443 ± 1.6
24727 kPa | 1443.1 ± 1.6
24768 kPa | 1443.2 ± 1.6
24794 kPa | 1443.4 ± 1.6
24828 kPa | 1443.6 ± 1.6
24859 kPa | 1443.8 ± 1.6
24889 kPa | 1443.8 ± 1.6
24914 kPa | 1444 ± 1.6
24955 kPa | 1444.1 ± 1.6
24984 kPa | 1444.1 ± 1.6
25017 kPa | 1444.3 ± 1.6
25047 kPa | 1444.4 ± 1.6
25081 kPa | 1444.7 ± 1.6
25116 kPa | 1444.8 ± 1.6
25141 kPa | 1445 ± 1.6
25410 kPa | 1446.1 ± 1.6
25440 kPa | 1446.3 ± 1.6
25947 kPa | 1448.3 ± 1.6
25974 kPa | 1448.4 ± 1.6
26063 kPa | 1448.8 ± 1.6
26227 kPa | 1449.5 ± 1.6
26309 kPa | 1449.7 ± 1.6
